Laboratory results: patent US20040171681A1, “Medicines and medicinal kits” (priority 2001, published 2004)

Tested on: ocular hypertension models
Assay: Test Example 1: ocular tension in rabbit ocular hypertension models (hypertonic saline) after eye drop solutions
Format: in vivo, Domesticated rabbits
Settings: rabbits given 100 μl 5 w/v % hypertonic saline, 50 μl eye drop solution, mean ± standard error
Method: Domesticated rabbits intravenously administered with 100 μl of a 5 w/v % hypertonic saline solution were used as ocular hypertension models. After intravenously administering the hypertonic saline solution, 50 μl of each of the eye drop solutions were administered and the ocular tension was measured 60 and 120 minutes thereafter.

## CC(C)OC(=O)CCC/C=C\C[C@@H]1[C@@H](CC[C@@H](O)CCc2ccccc2)[C@H](O)C[C@@H]1O [Latanoprost, latanoprost]
60 minutes after
  Ocular tension change (mmHg) 60 minutes: 22.7 ± 1.2 mmHg
120 minutes after
  Ocular tension change (mmHg) 120 minutes: 9.8 ± 1.9 mmHg
